Results published in ChEMBL document CHEMBL1201862, “PubChem BioAssay data set” (2004).
Active and inactive are the calls of the source. Rule as the data show it, for most assays here: actives have a measured EC50 and inactives only a lower limit.

Legend:
BJ [1] = assay: cells; type: functional, cell-based; conditions: Homo sapiens
BJ [2] = assay: BJ-TERT fibroblast viability loss – cell-based, RAS-independent, luminescence, dose response (AID 1933); type: functional; conditions: Homo sapiens
[3] = DRD fibroblast viability loss – cell-based, non-viral oncogenic, luminescence, dose response (AID 1934); type: functional; conditions: Homo sapiens
BJ [4] = assay: BJ-TERT-LT-ST fibroblast viability loss – cell-based, RAS-independent, luminescence, dose response (AID 1935); type: functional; conditions: Homo sapiens;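 also: BJ fibroblasts immortalized with TERT plus LT and ST oncogenes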
[5] = luciferase reporter signal suppression in cells – H4 neuroglioma cells, luminescence, dose response (AID 1990); type: functional, cell-based
[6] = alpha-synuclein stem-loop luciferase translation blockers – H4 neuroglioma cells, luminescence, confirmation (AID 1988); type: functional, cell-based
[7] = HEK-293T viability loss after treatment – luminescence, T-cell screen hits, cytotoxicity control for TCR NF-kB inhibitor project, dose response (AID 489026); type: functional, cell-based;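 also: cells exposed to compound about 14 hours before the viability readout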
[8] = Luminescence Cell-Based Dose Response HTS to Identify Inhibitors of 5'UTR Stem-Loop Driven Prion Protein mRNA Translation in H4 Neuroglioblastoma Cells. [Related pubchem assays: 1827 (Project Summary), 1813 (Primary HTS)]; type: functional
Paired box protein Pax-8 = Paired box protein Pax-8 (Homo sapiens, UniProt Q06710); assay: PAX8 transcriptional activity inhibition in RMG-I – RMG-I cells, luciferase, cherry-pick, dose response (AID 687027); type: functional, cell-based;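 also: luciferase reporter driven by Pax8 target thyroperoxidase promoter measured by SteadyGlo luminescence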
Chain of Paired box protein Pax-8 (Q06710 whole entry): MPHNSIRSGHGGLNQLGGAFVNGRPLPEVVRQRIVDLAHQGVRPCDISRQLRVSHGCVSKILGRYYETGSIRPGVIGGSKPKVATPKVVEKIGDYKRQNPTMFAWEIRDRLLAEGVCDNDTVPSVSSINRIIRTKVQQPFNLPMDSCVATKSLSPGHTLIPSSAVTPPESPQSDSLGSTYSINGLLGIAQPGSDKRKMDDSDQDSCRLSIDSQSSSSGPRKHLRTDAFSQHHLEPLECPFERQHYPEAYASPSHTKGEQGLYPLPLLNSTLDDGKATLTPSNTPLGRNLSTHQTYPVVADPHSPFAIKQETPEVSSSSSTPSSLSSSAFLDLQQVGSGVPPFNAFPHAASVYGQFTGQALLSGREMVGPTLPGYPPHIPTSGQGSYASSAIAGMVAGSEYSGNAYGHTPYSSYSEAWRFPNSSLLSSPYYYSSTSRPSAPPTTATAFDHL

[9] = biological target: T1, Histone-lysine N-methyltransferase NSD2 (Homo sapiens, UniProt O96028); type: biochemical
T1 sequence (O96028 whole entry): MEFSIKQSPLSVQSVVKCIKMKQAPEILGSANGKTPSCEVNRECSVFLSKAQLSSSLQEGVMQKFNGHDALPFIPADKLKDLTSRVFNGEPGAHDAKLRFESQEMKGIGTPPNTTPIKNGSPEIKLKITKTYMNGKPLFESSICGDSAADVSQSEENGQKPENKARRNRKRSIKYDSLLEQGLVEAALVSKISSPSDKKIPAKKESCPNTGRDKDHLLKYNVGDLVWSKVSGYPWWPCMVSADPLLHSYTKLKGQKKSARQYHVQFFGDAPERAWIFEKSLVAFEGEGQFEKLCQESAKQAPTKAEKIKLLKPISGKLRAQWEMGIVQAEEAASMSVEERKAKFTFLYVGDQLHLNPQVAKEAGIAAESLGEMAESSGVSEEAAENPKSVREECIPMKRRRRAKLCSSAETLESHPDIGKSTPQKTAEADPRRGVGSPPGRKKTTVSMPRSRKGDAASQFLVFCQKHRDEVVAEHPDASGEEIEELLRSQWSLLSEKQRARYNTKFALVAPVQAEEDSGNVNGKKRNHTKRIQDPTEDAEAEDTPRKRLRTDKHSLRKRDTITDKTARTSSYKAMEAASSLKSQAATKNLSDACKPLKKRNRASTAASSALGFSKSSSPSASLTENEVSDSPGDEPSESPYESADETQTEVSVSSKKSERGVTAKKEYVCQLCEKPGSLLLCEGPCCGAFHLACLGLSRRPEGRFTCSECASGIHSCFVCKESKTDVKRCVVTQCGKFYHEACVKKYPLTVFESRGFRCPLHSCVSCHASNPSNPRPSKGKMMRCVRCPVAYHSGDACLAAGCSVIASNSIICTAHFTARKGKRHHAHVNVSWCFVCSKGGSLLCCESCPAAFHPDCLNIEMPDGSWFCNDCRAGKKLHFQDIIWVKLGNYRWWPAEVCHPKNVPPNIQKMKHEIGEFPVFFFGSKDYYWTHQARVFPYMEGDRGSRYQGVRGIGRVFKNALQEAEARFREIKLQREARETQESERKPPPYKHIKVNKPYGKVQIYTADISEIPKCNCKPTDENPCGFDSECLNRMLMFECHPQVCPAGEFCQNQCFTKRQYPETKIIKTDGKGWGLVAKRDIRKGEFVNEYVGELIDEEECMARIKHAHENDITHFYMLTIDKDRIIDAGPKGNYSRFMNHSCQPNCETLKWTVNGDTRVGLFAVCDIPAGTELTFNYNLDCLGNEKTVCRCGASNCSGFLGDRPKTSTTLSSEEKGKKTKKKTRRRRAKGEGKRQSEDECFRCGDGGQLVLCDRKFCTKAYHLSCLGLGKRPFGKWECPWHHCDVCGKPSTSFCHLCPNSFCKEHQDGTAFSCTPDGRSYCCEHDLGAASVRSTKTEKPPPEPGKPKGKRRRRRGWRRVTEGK

[10] = biological target: T2, Rac GTPase-activating protein 1 (Homo sapiens, UniProt Q9H0H5); assay: blockers of MgcRacGAP-driven Rac1 GTP hydrolysis – biochemical, ADP Hunter fluorescence, primary and confirmatory, confirmation (AID 624330); type: functional
T2 sequence (Q9H0H5 whole entry): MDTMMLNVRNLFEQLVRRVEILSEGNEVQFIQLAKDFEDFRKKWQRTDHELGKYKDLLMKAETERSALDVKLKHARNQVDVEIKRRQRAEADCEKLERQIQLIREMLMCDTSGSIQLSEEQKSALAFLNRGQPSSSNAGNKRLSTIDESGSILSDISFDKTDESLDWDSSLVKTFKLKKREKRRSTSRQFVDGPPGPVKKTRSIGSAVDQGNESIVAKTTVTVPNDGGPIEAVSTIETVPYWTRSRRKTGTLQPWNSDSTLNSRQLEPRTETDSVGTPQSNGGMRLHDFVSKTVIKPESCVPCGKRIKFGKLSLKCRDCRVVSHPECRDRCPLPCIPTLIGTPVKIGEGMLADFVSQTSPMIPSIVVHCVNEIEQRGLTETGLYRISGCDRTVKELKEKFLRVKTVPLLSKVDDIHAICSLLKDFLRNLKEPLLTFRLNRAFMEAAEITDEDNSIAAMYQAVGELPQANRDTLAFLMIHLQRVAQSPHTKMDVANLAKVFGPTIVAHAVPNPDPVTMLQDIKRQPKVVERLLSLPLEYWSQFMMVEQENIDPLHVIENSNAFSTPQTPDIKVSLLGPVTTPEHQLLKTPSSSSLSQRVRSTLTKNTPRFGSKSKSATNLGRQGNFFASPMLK

[11] = biological target: T3, Zinc finger protein mex-5 (Caenorhabditis elegans, UniProt Q9XUB2); assay: potency of MEX-5 RNA-binding blockers – biochemical, C. elegans, fluorescence polarization, dose response (AID 1960)
T3 sequence (Q9XUB2 whole entry): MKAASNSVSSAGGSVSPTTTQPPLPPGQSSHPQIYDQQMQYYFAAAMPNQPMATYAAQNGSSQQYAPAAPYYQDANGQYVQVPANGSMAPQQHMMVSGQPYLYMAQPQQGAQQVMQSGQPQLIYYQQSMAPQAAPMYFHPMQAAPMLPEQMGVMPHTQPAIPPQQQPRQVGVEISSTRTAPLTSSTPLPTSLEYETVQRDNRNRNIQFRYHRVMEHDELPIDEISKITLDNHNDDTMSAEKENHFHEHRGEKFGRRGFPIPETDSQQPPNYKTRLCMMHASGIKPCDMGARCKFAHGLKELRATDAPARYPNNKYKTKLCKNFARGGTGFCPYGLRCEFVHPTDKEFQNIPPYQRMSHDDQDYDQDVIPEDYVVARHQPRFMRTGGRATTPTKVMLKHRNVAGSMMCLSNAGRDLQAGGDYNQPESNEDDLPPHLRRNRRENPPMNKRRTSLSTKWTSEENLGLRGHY

[12] = biological target: T4, RNA-binding protein pos-1 (Caenorhabditis elegans, UniProt G5EF15); assay: disruptors of C. elegans POS-1 RNA interaction – biochemical, fluorescence polarization, dose response (AID 1964);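 also: purified POS-1 fused to maltose binding protein made in E. coli; potency of compounds blocking POS-1 binding to fluorescent RNA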
T4 sequence (G5EF15 whole entry): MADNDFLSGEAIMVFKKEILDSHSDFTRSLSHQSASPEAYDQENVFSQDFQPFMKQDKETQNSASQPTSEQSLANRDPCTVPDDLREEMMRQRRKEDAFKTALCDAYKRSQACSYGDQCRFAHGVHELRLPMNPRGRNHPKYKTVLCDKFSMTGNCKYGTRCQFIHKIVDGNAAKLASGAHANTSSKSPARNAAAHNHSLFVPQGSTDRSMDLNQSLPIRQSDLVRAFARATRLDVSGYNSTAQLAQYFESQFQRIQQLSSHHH

[13] = biological target: T5, Heat shock factor protein 1 (Mus musculus, UniProt P38532); assay: decrease of HSF1-responsive luciferase luminescence – cell-based, NIH3T3, dose retest, confirmation (AID 2382); type: functional;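 also: NIH3T3 fibroblasts with HSF1-driven luciferase reporter stressed by proteasome inhibitor MG132; luminescence from HSF1-driven luciferase expression after 8 hours of MG132 stress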
T5 sequence (P38532 whole entry): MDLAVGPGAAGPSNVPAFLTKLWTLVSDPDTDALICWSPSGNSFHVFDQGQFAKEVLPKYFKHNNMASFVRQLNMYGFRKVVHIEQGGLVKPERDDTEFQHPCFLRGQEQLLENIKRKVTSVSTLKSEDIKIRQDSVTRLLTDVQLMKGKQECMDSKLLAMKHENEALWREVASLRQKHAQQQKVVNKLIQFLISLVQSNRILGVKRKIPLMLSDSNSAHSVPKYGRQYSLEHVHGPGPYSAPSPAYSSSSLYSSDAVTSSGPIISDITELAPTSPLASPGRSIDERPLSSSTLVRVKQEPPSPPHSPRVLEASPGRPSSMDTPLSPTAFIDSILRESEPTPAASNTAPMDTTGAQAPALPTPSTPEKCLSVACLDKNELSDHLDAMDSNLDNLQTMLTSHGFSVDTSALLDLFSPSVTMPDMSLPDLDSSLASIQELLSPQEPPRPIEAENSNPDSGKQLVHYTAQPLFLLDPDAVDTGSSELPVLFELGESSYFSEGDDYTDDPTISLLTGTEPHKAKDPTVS

Fatty acid synthase [14] = biological target: T6, Fatty acid synthase (Homo sapiens, UniProt P49327); assay: inhibition of human FAS-TE enzyme activity – biochemical, endpoint fluorescence intensity, uHTS hits, dose response (AID 624327); type: functional;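 also: fluorescence from hydrolysis of an O-methyl fluorescein acyl ester substrate by the enzyme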
T6 sequence (P49327 whole entry): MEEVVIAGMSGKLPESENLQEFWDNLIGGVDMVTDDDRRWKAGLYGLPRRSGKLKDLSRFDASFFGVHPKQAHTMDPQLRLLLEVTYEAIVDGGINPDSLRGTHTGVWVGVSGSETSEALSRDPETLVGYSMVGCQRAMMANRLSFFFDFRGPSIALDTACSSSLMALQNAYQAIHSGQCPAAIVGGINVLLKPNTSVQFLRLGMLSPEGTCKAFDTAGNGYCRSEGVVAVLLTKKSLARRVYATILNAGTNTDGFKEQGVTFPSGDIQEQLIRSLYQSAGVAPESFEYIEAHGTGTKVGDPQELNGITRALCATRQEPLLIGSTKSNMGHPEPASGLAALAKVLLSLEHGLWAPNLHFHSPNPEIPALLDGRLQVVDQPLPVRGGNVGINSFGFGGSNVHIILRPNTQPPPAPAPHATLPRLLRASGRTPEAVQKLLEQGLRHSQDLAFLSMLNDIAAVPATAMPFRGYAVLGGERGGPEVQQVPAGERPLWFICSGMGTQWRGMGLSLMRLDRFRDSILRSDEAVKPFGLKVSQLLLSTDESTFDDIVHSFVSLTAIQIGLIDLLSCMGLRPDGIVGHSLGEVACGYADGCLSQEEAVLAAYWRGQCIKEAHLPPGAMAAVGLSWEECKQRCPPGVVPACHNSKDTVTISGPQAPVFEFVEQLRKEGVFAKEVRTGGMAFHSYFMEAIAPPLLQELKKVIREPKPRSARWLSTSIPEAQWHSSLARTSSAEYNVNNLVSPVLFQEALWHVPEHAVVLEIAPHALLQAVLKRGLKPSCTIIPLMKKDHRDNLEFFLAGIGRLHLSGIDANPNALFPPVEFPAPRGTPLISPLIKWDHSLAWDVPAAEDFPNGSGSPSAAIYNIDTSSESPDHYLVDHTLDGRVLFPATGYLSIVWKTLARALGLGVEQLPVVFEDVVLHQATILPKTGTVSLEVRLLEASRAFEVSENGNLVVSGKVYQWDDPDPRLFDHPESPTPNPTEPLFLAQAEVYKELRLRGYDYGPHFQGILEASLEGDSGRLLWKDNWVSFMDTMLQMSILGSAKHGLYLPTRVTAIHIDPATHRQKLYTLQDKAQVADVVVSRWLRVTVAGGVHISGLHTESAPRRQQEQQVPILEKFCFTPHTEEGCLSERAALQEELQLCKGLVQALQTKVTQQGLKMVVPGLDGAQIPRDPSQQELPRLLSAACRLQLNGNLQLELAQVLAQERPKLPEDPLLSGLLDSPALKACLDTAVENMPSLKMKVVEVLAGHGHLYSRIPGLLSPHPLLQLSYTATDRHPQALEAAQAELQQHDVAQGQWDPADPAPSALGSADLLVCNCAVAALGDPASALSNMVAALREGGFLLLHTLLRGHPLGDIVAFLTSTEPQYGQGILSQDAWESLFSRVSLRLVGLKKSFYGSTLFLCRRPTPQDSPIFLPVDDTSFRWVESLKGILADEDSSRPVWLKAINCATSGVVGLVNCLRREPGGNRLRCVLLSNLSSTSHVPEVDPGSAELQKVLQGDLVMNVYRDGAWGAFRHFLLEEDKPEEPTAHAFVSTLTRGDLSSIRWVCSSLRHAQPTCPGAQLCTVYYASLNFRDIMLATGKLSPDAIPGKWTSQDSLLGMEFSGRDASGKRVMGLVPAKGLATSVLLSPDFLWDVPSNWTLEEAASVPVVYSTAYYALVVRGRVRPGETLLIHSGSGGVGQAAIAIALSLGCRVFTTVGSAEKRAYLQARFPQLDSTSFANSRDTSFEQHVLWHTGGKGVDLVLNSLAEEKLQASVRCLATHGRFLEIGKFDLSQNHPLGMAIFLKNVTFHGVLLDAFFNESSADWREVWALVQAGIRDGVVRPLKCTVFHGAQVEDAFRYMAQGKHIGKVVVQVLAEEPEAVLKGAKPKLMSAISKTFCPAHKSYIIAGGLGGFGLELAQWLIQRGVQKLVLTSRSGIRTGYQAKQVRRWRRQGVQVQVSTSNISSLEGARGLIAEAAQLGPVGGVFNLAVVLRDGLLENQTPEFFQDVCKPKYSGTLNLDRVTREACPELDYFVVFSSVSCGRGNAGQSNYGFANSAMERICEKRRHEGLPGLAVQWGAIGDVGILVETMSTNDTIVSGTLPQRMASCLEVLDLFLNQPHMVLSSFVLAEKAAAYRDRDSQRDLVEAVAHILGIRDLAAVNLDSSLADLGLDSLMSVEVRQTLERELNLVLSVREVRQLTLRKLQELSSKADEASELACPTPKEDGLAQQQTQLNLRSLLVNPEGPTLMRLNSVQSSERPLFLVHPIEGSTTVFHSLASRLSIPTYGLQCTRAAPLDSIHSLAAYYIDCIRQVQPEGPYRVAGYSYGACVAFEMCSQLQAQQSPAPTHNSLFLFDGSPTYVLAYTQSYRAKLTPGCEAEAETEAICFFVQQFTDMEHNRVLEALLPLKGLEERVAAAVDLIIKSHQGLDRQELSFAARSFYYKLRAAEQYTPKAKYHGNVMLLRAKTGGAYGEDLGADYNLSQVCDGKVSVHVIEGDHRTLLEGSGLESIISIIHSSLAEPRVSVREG

Fatty acid synthase [15] = biological target: T6, Fatty acid synthase; assay: inhibition of human FAS-TE enzyme activity – biochemical, kinetic fluorescence intensity, dose response (AID 624326); type: functional;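 also: rate of fluorescence rise from hydrolysis of a fluorogenic O-methyl fluorescein ester substrate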

SMILES	EC50 (BJ [1])	EC50 (BJ [2])	EC50 [3]	EC50 (BJ [4])	EC50 [11]	EC50 [12]	other results
CC(=O)c1cccc(Nc2c3c(nc4ccccc24)CCC3)c1	30.6 µM (inconclusive)	2.21 µM (active)	0.898 µM (active)	1.11 µM (active)	–	–	–
Cc1ccc(C(=O)c2cc([N+](=O)[O-])ccc2N2CCCCC2)cc1	82.5 µM (inconclusive)	0.493 µM (inconclusive)	1.21 µM (active)	0.576 µM (inconclusive)	–	–	EC50 [5]: 0.129 µM (active); EC50 [6]: < 0.1 µM (active); IC50 [7]: > 80 µM (inactive); EC50 [8]: 0.303 µM (active); AC50 (Paired box protein Pax-8): 3.39 µM (active)
CCOc1ccccc1N1CCN(C/C=C/c2ccc(N(C)C)cc2)CC1	–	–	–	–	–	–	AC50 [9]: 15.5 µM (active); IC50 [10]: 75.8 µM (active)
CCCCC1=CC2=CC(=O)C(C)(O)C(=O)C2=CO1 (stereo not given)	–	–	–	–	23.5 µM (active)	55.3 µM (active)	–
O=C(O)c1ccc(CN2C(=O)c3cccc4c([N+](=O)[O-])ccc(c34)C2=O)cc1	12.9 µM (active)	9.19 µM (active)	10.9 µM (inconclusive)	10.6 µM (inconclusive)	–	–	EC50 [13]: 6.53 µM (active)
COC(=O)c1c(O)[n+]([O-])c2ccc(OC)cc2[n+]1[O-]	–	–	–	–	> 300 µM (inconclusive)	14.1 µM (active)	–
O=C(CC1C[C@H](C(=O)N2CCOCC2)[C@@]2(CCC3CCCC3)c3[nH]c4ccccc4c3CCN2C1=O)NCCc1ccccn1 (stereo not given in full)	–	–	–	–	–	–	IC50 (Fatty acid synthase [14]): 1.37 µM (active); IC50 (Fatty acid synthase [15]): 1.09 µM (active)
Cc1ccc(-c2nnc(Nc3ccc(CC(N)=O)cc3)c3ccccc23)cc1S(N)(=O)=O	–	–	–	–	> 300 µM (not active)	> 300 µM (not active)	–
CC1=N/C(=C/c2ccco2)C(=O)O1	–	–	–	–	33.1 µM (active)	71.1 µM (active)	–
